Reference: paper PMC2784880 (2009)

Molecular target: T1, trypanothione synthetase-amidase (TRYS) (Trypanosoma brucei, UniProt Q586P2)
T1 sequence (Q586P2 1-627): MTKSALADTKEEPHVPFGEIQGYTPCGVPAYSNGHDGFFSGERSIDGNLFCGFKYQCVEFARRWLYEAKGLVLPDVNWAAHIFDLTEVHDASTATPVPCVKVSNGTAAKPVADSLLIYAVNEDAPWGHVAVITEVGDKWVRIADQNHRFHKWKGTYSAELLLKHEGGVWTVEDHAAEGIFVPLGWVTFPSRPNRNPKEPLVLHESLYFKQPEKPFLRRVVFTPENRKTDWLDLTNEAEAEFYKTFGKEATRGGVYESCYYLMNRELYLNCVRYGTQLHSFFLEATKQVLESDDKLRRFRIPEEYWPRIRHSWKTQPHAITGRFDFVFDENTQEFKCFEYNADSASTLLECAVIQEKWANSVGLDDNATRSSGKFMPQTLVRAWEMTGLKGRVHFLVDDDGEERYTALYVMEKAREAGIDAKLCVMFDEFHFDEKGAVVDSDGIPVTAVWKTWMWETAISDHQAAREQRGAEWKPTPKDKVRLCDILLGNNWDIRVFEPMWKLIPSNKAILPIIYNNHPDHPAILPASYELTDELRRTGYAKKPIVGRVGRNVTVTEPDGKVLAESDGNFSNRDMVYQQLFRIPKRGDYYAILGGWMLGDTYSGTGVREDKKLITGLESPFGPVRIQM
Assay: inhibition of recombinant TRYS
Format: biochemical

CN(C)CCCNC(=O)Cn1nc(-c2cccc(F)c2)c2ccccc21 [DDU 86439, N-(3-(dimethylamino)propyl)-2-(3-(3-fluorophenyl)-1H-indazol-1-yl)acetamide]
IC50: 45 nM
